Molecules are shown by their SMILES.

For the first assay, the target named is T1, human Cav3.2 (Homo sapiens, UniProt O95180).
T1 construct: expressed in transfected cells
T1 sequence (O95180 whole entry): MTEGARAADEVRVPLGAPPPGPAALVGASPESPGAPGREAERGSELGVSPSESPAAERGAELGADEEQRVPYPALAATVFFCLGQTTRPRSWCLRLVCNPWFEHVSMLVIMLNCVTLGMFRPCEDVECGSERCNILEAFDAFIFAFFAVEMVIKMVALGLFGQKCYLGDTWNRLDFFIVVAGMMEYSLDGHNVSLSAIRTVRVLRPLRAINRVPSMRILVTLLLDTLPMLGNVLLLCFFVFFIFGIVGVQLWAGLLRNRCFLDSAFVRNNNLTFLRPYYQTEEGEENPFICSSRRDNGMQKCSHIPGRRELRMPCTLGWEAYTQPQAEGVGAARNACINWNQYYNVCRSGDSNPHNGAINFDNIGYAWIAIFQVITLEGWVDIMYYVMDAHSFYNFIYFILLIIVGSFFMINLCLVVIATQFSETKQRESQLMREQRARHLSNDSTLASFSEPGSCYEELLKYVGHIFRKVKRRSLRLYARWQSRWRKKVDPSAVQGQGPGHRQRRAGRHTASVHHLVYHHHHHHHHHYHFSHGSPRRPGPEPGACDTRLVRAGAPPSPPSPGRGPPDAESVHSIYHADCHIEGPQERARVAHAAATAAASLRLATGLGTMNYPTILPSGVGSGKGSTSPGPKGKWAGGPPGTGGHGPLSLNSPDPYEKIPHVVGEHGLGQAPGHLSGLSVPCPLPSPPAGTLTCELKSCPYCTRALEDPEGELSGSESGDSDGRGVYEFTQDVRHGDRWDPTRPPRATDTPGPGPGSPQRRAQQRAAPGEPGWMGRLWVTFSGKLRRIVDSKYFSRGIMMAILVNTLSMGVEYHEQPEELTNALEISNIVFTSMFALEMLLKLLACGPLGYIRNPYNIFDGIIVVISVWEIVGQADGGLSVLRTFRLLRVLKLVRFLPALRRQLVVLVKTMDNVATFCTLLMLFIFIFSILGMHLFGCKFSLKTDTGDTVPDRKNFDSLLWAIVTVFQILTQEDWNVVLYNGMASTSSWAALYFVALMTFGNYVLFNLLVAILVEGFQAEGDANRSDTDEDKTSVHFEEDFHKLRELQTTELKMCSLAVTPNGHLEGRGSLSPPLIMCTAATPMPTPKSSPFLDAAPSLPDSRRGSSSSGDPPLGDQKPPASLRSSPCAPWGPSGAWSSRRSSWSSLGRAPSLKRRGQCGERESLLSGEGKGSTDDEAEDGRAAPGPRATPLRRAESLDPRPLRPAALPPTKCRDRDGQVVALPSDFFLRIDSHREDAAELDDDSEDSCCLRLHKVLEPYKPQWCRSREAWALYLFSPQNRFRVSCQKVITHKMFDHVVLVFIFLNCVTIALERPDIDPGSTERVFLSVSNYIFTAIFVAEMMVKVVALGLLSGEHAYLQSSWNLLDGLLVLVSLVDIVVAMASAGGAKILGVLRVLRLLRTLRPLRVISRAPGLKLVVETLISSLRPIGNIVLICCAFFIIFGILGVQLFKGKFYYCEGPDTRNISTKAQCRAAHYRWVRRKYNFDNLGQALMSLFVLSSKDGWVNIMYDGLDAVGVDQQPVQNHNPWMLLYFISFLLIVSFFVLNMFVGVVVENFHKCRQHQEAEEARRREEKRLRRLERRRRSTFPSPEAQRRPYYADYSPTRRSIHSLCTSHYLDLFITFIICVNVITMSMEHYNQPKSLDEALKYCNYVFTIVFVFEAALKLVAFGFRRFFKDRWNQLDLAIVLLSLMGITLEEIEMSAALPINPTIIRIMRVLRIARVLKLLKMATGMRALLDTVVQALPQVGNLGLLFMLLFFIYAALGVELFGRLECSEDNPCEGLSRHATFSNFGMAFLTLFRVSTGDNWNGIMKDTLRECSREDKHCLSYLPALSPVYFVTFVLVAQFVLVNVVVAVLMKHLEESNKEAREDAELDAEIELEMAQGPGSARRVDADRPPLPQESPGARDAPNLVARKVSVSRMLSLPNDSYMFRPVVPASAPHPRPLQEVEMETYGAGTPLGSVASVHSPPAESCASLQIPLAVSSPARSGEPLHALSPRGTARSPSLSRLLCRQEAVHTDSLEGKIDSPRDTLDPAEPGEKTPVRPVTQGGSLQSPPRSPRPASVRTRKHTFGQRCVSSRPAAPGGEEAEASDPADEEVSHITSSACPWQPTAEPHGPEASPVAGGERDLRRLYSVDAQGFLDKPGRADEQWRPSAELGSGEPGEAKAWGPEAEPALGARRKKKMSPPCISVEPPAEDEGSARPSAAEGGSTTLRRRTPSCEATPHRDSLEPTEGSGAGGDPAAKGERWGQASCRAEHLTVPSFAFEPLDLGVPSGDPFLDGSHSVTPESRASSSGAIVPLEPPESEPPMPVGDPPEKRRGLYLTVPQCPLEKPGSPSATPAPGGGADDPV
Description: Ionworks screen for hCaV3.2 (IonWorks HT voltage clamp, T-type calcium current). Conditions: IonWorks (IW) screen. The class given is cell-based. The source says: (§1) Functional evaluation of voltage-gated ion channels was used to determine potency and/or single concentration efficacy of proprietary compounds. Two different methodologies were used to measure ion currents: the IonWorks HT (Molecular Devices, Sunnyvale, Calif.) a moderate throughput voltage clamp screening platform that utilizes 96-well compound plates and conventional whole cell patch clamp for lower throughput, higher fidelity determinations.
HEK cells were transiently transfected and then selected for stable heterologous expression of different channel proteins of interest. Calcium channel cell lines expressed a resting potassium current, human Kir2.1, and the pore forming α-subunit of voltage-gated calcium channels. In the case of Cav2.1 cells the auxiliary subunit, β2a, was also expressed. Calcium channel lines that were used to generate the data in this document expressed either human Cav3.2, rat Cav3.2 or human Cav2.1. The human heart sodium channel, hNav1.5, was stably expressed in CHO cells. These cells were licensed from the University of Pennsylvania.
Cell lines were grown at 37° C. in humidified incubators, equilibrated with 95% air/5% CO2. CHO cells were grown in Ham's F-12 medium. HEK cells were grown in DMEM. All media were supplemented with 10% heat-inactivated fetal bovine serum, penicillin, streptomycin and appropriate selection antibiotics (zeocin, geneticin and/or hygromycin). Cells were passaged when 80% confluent or less.
Ionworks Screen for hCaV3.2
The extracellular buffer for experiments using this instrument contained the following (mM) (NaCl 125, HEPES 10, KCl 5.4, CaCl2 1.8, MgCl2 1.8, 0.2 BaCl2 pH 7.35). The IonWorks uses amphotericin to gain electrical access to the cell interior. The internal solution contained (mM concentrations): 130 K-gluconate, 20 KCl, 5 HEPES-KOH (pH 7.25), 2 CaC12, 1 MgCl2. Amphotericin added at 5 mg in 65 ml when present (in 650 μl DMSO). All internal and external solutions for this experiment contain 1% DMSO. Cells were acutely trypsinized from a T-75 flask and resuspended in extracellular buffer at a density of 2×10^5 cells/ml.
Experiments were performed at room temperature, Transmembrane potential was held at −100 mV for 5 seconds prior to running the voltage protocol. During this time leak currents were measured during a step to −110 mV (200 milliseconds). T-type calcium currents were activated with a 250 millisecond step to −20 mV. This depolarization step was repeated for a total of 10 pulses with an interpulse interval of 1 second. Data were excluded if the following acceptance criteria were not met: total resistance for the pre-compound scan >65 MΩ, pre-compound current >250 pA, post compound total resistance >50 MΩ.
T-type currents were measured as the peak inward current minus the current at the end of the 250 msec step to −20 mV. After the recoding configuration was established there was a pre-compound measurement of current amplitude Compound was added as a 3× solution containing 1% DMSO. After incubation with compound for 10 minutes currents were measured again. The current amplitude after compound addition was divided by the pre-compound current for pulse 10 to determine the traction of current remaining after compound addition. For each compound, 8-point concentration-effect relationships were measured with ½ log serial dilutions.
By IC50 is commonly meant the midpoint of a concentration-inhibition curve. For the molecule `CC(C)N1CC2(CCN(C(=O)Nc3cccc(F)c3)CC2)C1c1ccc(Cl)cc1` (single isomer, unassigned), the IC50 came to 64 nM. The same measure, in the same setting: in the case of `CC(C)N1CC2(CCN(C(=O)Nc3ccc(Cl)cc3)CC2)C1c1ccc(Cl)cc1` (single isomer, unassigned) it was 49 nM; in that of `CC[C@H](C)[C@H](NC(=O)N1CCC2(CC1)CN(CCC(C)C)C2c1ccc(F)cc1)C(=O)OC` (some centres unmarked), 58 nM. Regarding `CC(C)CCN1CC2(CCN(C(=O)NC34CC5CC(CC(C5)C3)C4)CC2)C1c1ccc(F)cc1` (centres unmarked), the IC50 amounted to 68 nM. Consider `CC(C)N1CC2(CCN(C(=O)Nc3cccc(F)c3)CC2)C1c1ccc(Br)cc1` (single isomer, unassigned), for which the half-maximal inhibitory concentration (IC50) came to 58 nM.

On to `CC(C)N1CC2(CCN(C(=O)Nc3cccc(C#N)c3)CC2)C1c1ccc(Cl)cc1` (single isomer, unassigned), for which the IC50 worked out at 50 nM. As to `CC[C@H](C)[C@H](NC(=O)N1CCC2(CC1)CN(C(C)C)C2c1ccc(Br)cc1)C(=O)OC` (single isomer, unassigned), the 50% inhibitory concentration (IC50) was 24 nM. As for `O=C(Nc1cc(F)cc(F)c1)N1CCC2(CC1)CN(c1ccc(F)c(Cl)c1)C2c1ccccn1` (single isomer, unassigned), the half-maximal inhibitory concentration (IC50) stood at 60 nM. `CC(C)CCN1CC2(CCN(C(=O)Nc3cc(F)cc(F)c3)CC2)C1c1ccc(F)cc1` (single isomer, unassigned): the half-maximal inhibitory concentration (IC50) is 76 nM. Same read-out and setting: with `CC(C)CCN1CC2(CCN(C(=O)Nc3cc(F)cc(F)c3)CC2)C1c1ccc(F)cc1` (centres unmarked) the figure was 70 nM; with `CC(C)N1CC2(CCN(C(=O)Nc3cccc(Cl)c3)CC2)C1c1ccc(Cl)cc1` (single isomer, unassigned), 38 nM; with `CC[C@H](C)[C@H](NC(=O)N1CCC2(CC1)CN(C(C)C)C2c1ccc(-c2ccccc2)cc1)C(=O)OC` (some centres unmarked), 76 nM.

Regarding `CC(C)N1CC2(CCN(C(=O)Nc3cc(F)cc(F)c3)CC2)C1c1ccc(Br)cc1` (single isomer, unassigned), the IC50 is 44 nM.

Turning to `CC[C@H](C)[C@H](NC(=O)N1CCC2(CC1)CN(C(C)C)C2c1ccc(Cl)cc1)C(=O)OC(C)(C)C` (single isomer, unassigned), the IC50 is 85 nM. Regarding `CC[C@H](C)[C@H](NC(=O)N1CCC2(CC1)CN(CCC(C)C)C2c1ccc(F)cc1)C(=O)OC` (single isomer, unassigned), the half-maximal inhibitory concentration (IC50) was determined as 45 nM.

The target of a further assay is T2, human GPR119 (Homo sapiens, UniProt Q8TDV5).
T2 construct: expressed in transfected cells
T2 sequence (Q8TDV5 1-335): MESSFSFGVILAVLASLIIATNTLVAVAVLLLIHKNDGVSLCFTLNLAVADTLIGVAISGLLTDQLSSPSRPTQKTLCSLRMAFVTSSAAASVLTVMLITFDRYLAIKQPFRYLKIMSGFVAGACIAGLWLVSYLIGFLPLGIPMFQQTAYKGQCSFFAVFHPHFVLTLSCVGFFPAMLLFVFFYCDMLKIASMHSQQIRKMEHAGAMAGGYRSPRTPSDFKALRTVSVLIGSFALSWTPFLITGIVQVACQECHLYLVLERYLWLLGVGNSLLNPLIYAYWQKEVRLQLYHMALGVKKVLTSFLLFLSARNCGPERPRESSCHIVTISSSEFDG
Description: GPR119 screening assay (LANCE cAMP, HEK 293 cells stably transfected with human GPR119). Conditions: HEK 293 cells stably transfected with human GPR119, LANCE cAMP; read-out: GPR 119 cAMP EC50. The class given is cell-based. Background: In TR-FRET formats the signal depends on donor and acceptor labels being close together.
One may read the EC50 as the concentration needed to bring the measured effect to its halfway point. On to `COc1cc(C(=O)N2CCC3(CC2)CN(Cc2ccccc2Cl)C3c2ccccc2)cc(OC)c1OC` (centres unmarked), for which the 50% effective concentration (EC50) worked out at 1260 nM.

With `COc1cc(C(=O)N2CCC3(CC2)CN(c2ccc(C)cc2)C3c2ccc(Cl)cc2)cc(OC)c1OC` (centres unmarked), the EC50 amounted to 1340 nM. Turning to `COc1cc(C(=O)N2CCC3(CC2)CN(c2ccccc2F)C3c2ccc(Cl)cc2)cc(OC)c1OC` (centres unmarked), the EC50 came to 516 nM. Consider `COc1cc(C(=O)N2CCC3(CC2)CN(CC(C)C)C3c2ccccc2)cc(OC)c1OC` (centres unmarked), for which the EC50 is 882 nM.

As to `COc1cc(C(=O)N2CCC3(CC2)CN(Cc2ccc(F)cc2F)C3c2ccc(F)cc2)cc(OC)c1OC` (centres unmarked), the EC50 stood at 1200 nM. As to `O=C(c1ccc2c(c1)OCCCO2)N1CCC2(CC1)CN(Cc1ccc(F)cc1F)C2c1ccc(F)cc1` (centres unmarked), the EC50 amounted to 1300 nM.

For another assay, the target named is T1, human Cav3.2. As to the kind of experiment: Conventional whole cell patch clamp, hCav3.2 current. The class given is cell-based. Conditions: values marked * in Table 10; voltage clamp assay.
Description: as §1
HEK cells were transiently transfected and then selected for stable heterologous expression of different channel proteins of interest. Calcium channel cell lines expressed a resting potassium current, human Kir2.1, and the pore forming α-subunit of voltage-gated calcium channels. In the case of Cav2.1 cells the auxiliary subunit, β2a, was also expressed. […]
The holding potential was −100 mV for all protocols. […] Cav3.2 currents were measured as the peak current 10-30 milliseconds after the voltage was stepped to −35 mV. […] For hCav2.1 currents were activated with a 200 millisecond step to 0 mV. hCav2.1 currents were measured from the leak-subtracted traces as the average current between 190 and 200 milliseconds after the step to 0 mV. […] Sodium currents were measured from leak subtracted traces as the peak transient inward current.
All drug effects were measured after a steady-state effect was achieved. […]
Background: The patch-clamp technique gives a direct electrical read-out from membranes.
In turn, `CC(C)CCN1CC2(CCN(C(=O)NC34CC5CC(CC(C5)C3)C4)CC2)C1c1ccc(F)cc1` (centres unmarked) displayed a 50% inhibitory concentration (IC50) of 202 nM. In turn, `CC[C@H](C)[C@H](NC(=O)N1CCC2(CC1)CN(C(C)C)C2c1ccc(Br)cc1)C(=O)OC` (single isomer, unassigned) showed a half-inhibitory concentration (IC50) of 82 nM.

Values taken from US7638526B2, “Azetidine derivatives useful in treating pain, diabetes and disorders of lipid metabolism” (Schering Corporation, priority 2006, dated 2009).
